# Results reported in US10745365B2, “Luminogenic and fluorogenic compounds and methods to detect molecules or conditions” (Promega Corporation, priority 2005, dated 2020).
# Columns and labels:
# Assay type in all cases: biochemical
# [1] = target: T1, QuantiLum Luciferase (firefly luciferase) (Photinus pyralis, UniProt P08659); experiment: Light emission of QuantiLum firefly luciferase with luciferin derivatives; conditions: for Light reading (Turner 20/20) at time 0: 0 min; for Light reading (Turner 20/20) at time 7: 7 min; for Light reading (Turner 20/20) at time 15: 15 min; for Light reading (Turner 20/20) at time 22: 22 min; for Light reading (Turner 20/20) at time 30: 30 min; for Light reading (Turner 20/20) at time 45: 45 min; for Light reading (Turner 20/20) at time 60: 60 min; for Light emission, Alone: Alone (no addition)
# T1 construct: purchased Promega Corporation El 70
# T1 sequence (P08659 whole entry): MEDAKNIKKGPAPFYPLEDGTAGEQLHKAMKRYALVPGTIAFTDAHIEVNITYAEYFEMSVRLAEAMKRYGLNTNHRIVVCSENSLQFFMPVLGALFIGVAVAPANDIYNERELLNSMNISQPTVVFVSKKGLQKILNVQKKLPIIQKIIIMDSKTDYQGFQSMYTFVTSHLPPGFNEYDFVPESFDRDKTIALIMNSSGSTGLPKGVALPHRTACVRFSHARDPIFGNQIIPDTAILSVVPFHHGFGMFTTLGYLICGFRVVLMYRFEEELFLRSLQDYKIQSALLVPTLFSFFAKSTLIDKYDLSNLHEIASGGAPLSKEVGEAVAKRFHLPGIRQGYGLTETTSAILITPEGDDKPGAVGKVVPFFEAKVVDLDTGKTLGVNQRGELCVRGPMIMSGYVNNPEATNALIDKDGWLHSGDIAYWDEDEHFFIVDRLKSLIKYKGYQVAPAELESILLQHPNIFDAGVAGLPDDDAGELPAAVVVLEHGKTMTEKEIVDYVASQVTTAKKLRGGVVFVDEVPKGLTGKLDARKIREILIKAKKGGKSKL
# Protocol: Gel and HPLC stop solution. Solid EDTA (free acid) was placed in a beaker with water and the pH of the solution adjusted to pH 7.0. The solution was then adjusted in volume to produce a solution 400 mM in EDTA.
# Enzyme stop solution. A solution was prepared containing 20 mM Bis Tris, pH 6.5, 2 mM EDTA and 1 mg/ml bovine serum albumin.
# Reaction buffer (2×). A solution was made containing 100 mM HEPES buffer, pH 8.0; 10 mM MgCl2.
# DTT stock. Solid DTT (dithiothreitol) was dissolved in water and then adjusted to pH 8.0 with solid sodium hydroxide. The solution was then adjusted in volume to produce a solution 1 M in DTT.
# (§1) After producing the solutions in Table 37, the volume of all reactions was adjusted to 990 μl with water. […] While the light reading was being taken, a 10 μl sample of the reaction was diluted to 500 μl with enzyme stop solution (cooled on ice to 4° C.) mixed and placed on ice and a second sample of 90 μl of reaction was added to 10 μl of Gel/HPLC stop and the tube placed at −20° C. A timer was started with the start of the first reaction and the start times of the remaining reactions was noted. At 15, 30, 45 and 60 minutes, each reaction was sampled as above and the light produced in the luminometer tubes was measured. At 7 and 22 minutes, the light produced in the luminometer tubes was read, but the reactions were not sampled.
# as §1, with “40,” for “37,”, “−200” for “−20°”
# The DTT, Coenzyme A, and QuantiLum stock solutions are the same as those described herein.
# This solution was diluted 1:1 with water to produce an enzyme solution labeled “No addition.” This solution was diluted 1:1 with 400 mM DTT, pH 8.0 to produce a solution labeled+DTT. This solution was diluted 1: 1 with 4 mM Coenzyme A to produce a solution labeled+Co A. Finally, this solution was diluted 1: 1 with a solution having both 4 mM Coenzyme A and 400 mM DTT to produce a solution labeled+Co A & DTT.
# 50 μl samples of these solutions were placed in the wells of luminometer microtiter plates, row A to row G, respectively. Row H of the plates was given 50 μl of water.
# Reactions in these plates were initiated by addition of 50 μl of solution containing QuantiLum luciferase using a 12 channel micropipette. The solutions added to the rows were: columns 1, 5, and 9—no addition solution; columns 2, 6, and 10—+Co A solution; columns 3, 7, and 11—+DTT solution, and; columns 4, 8, and 12—+Co A and DTT solution. After addition of the enzyme solution to the first row on every plate, a timer was started. After addition of the enzyme solution to the last row on each plate, the plate was sealed and read on a Veritas luminometer.
# [2] = target: T1, QuantiLum Luciferase (firefly luciferase); experiment: Residual active QuantiLum luciferase after reaction with derivative (Steady Glo); conditions: no additive (reactions 3A, 4A)
# Protocol: as §1
# After all samples were taken, 50 μl of the sample diluted into enzyme stop solution was mixed with 50 μl of Steady Glo Luciferase Reagent (Promega) and the light produced measured after incubating at room temperature for 10 minutes. This measured the active luciferase in the initial reaction.
# as §1, with “40,” for “37,”, “−200” for “−20°”
# [3] = system: thermostable luciferase (Luc 146-1H2); experiment: Light emission of thermostable luciferase with luciferin derivatives; conditions: 100 μM each
# Protocol: This stock was used to produce enzyme stock solution having of 200 μg/ml enzyme solution in 1 mg/ml BSA, 200 mM HEPES buffer, pH 8.0, 20 mM MgCl2.
# Solutions were made using a 1 M DTT solution, pH adjusted to 8.0, a 20 mM Coenzyme A solution in water (both described in examples above), a 100 mM ATP solution and water to create the following solutions: Sol′ A, 100 μM ATP; Sol′B, 100 μM ATP, 4 mM Coenzyme A; Sol′n C, 100 μM ATP, 400 mM DTT, and; Sol′n D, 100 μM ATP, 4 mM Coenzyme A and 400 mM DTT.
# After assembly, the reactions were initiated by addition of 25 μl of the thermostable luciferase stock solution above and mixing the tube contents. A 50 μl sample was immediately removed and placed in a luminometer tube and the light read and the tube then replaced in a tube rack at room temperature. While the light reading was being taken, a 5 μl sample of the remaining reaction (which was kept at room temperature) was diluted into 495 μl of 50 mM BisTris, pH 6.5, 1 mg/ml BSA, 1 mM EDTA prechilled to 4° C. and the tube mixed and placed on ice. The light produced by the samples in the luminometer tubes were re-read at 20, 40, 60, 90 and 120 minutes post enzyme addition. Additional 5 μl samples were taken and diluted as above at 60 and 120 minutes post enzyme addition. Once all these readings and samples were taken, 50 μl of the diluted samples was mixed with 50 μl of Steady Glo in luminometer tubes, the tubes incubated 10 minutes […] then the light produced was read on a Turner TD 20/20 luminometer.
structure (smiles),measurement,setting,value
"O=C(O)[C@H]1CSC(c2nc3ccc(OCCO)cc3s2)=N1 [2 hydroxyethoxyluciferin derivative, 6′-(2-hydroxyethoxyl) luciferin]",Light reading (Turner 20/20) at time 0,[1]; +Co A,"810,864"
same,Light reading (Turner 20/20) at time 7,[1]; +Co A,"125,718"
same,Light reading (Turner 20/20) at time 15,[1]; +Co A,"61,287"
same,Light reading (Turner 20/20) at time 22,[1]; +Co A,"326,424"
same,Light reading (Turner 20/20) at time 30,[1]; +Co A,"169,972"
same,Light reading (Turner 20/20) at time 45,[1]; +Co A,"78,909"
same,Light reading (Turner 20/20) at time 60,[1]; +Co A,"45,156"
same,Light reading (Turner 20/20) at time 0,[1]; +DTT,"2,515,513"
same,Light reading (Turner 20/20) at time 7,[1]; +DTT,"294,885"
same,Light reading (Turner 20/20) at time 15,[1]; +DTT,"146,849"
same,Light reading (Turner 20/20) at time 22,[1]; +DTT,"335,031"
same,Light reading (Turner 20/20) at time 30,[1]; +DTT,"237,487"
same,Light reading (Turner 20/20) at time 60,[1]; +DTT,"67,064"
same,Light reading (Turner 20/20) at time 0,[1]; No Additive,"749,597"
same,Light reading (Turner 20/20) at time 7,[1]; No Additive,"114,541"
same,Light reading (Turner 20/20) at time 15,[1]; No Additive,"63,691"
same,Light reading (Turner 20/20) at time 22,[1]; No Additive,"259,945"
same,Light reading (Turner 20/20) at time 30,[1]; No Additive,"233,600"
same,Light reading (Turner 20/20) at time 45,[1]; No Additive,"51,233"
same,Light reading (Turner 20/20) at time 60,[1]; No Additive,"44,782"
same,Light reading (Turner 20/20) at time 0,[1]; no ATP,87
same,Light reading (Turner 20/20) at time 7,[1]; no ATP,106
same,Light reading (Turner 20/20) at time 15,[1]; no ATP,"387,497"
same,Light reading (Turner 20/20) at time 22,[1]; no ATP,"218,745"
same,Light reading (Turner 20/20) at time 45,[1]; no ATP,"11,499"
same,Light reading (Turner 20/20) at time 60,[1]; no ATP,"20,100"
same,loss of luciferase activity on transformation of substrate,[2],significant and substantial reduction in enzyme activity
O=C(O)C1CSC(c2nc3ccc(NCCCO)cc3s2)=N1 (stereo not shown) [N-(3-hydroxypropyl)-aminoluciferin],luciferase substrate,[1],substrate for luciferase that provides sufficient light output for a luminescence reaction
CN(C)c1ccc2nc(C3=NC(C(=O)O)CS3)sc2c1 (stereo not shown) [dimethyl amino luciferin],brightness relative to amino luciferin,[3],only about half as bright
"O=C(O)[C@H]1CSC(c2nc3ccc(OCc4ccccc4)cc3s2)=N1 [luciferin-6-benzylether, reference compound]","Light emission, Co A","[1]; Derivative Conc. 3.13 μM, +Co A",55778
same,"Light emission, Co A + DTT",[1]; Derivative Conc. 3.13 μM,80626
same,"Light emission, DTT","[1]; Derivative Conc. 3.13 μM, +DTT",86445
same,"Light emission, Alone",[1]; Derivative Conc. 3.13 μM,32994
same,"Light emission, Co A","[1]; Derivative Conc. 6.25 μM, +Co A",58288
same,"Light emission, Co A + DTT",[1]; Derivative Conc. 6.25 μM,105912
same,"Light emission, DTT","[1]; Derivative Conc. 6.25 μM, +DTT",100044
same,"Light emission, Alone",[1]; Derivative Conc. 6.25 μM,38838
same,"Light emission, Co A","[1]; Derivative Conc. 25 μM, +Co A",53097
same,"Light emission, Co A + DTT",[1]; Derivative Conc. 25 μM,90306
same,"Light emission, DTT","[1]; Derivative Conc. 25 μM, +DTT",84034
same,"Light emission, Alone",[1]; Derivative Conc. 25 μM,40093
same,"Light emission, Co A","[1]; Derivative Conc. 50 μM, +Co A",38349
same,"Light emission, Co A + DTT",[1]; Derivative Conc. 50 μM,98716
same,"Light emission, DTT","[1]; Derivative Conc. 50 μM, +DTT",80001
same,"Light emission, Alone",[1]; Derivative Conc. 50 μM,30609
same,"Light emission, Co A","[1]; Derivative Conc. 100 μM, +Co A",33199
same,"Light emission, Co A + DTT",[1]; Derivative Conc. 100 μM,64460
same,"Light emission, DTT","[1]; Derivative Conc. 100 μM, +DTT",54592
same,"Light emission, Alone",[1]; Derivative Conc. 100 μM,31581
